Data reported in patent publication US9676715B2, “Bis-indolic derivatives, a process for preparing the same and their uses as a drug” (UNIVERSITE JOSEPH FOURIER, priority 2011, dated 2017).

Tests used:
S. epidermidis CIP 81.55 = test: MIC, microdilution method (9.1); type: cell-based, Staphylococcus epidermidis; conditions: Staphylococcus epidermidis, CIP81, read after 18 h, read-out: MIC
Outline: (§1)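 Mueller Hinton broth cultures at 5×10^5 CFU/ml final were exposed to doubling concentrations of compound from 0.50 to 128 mg/L. Incubation: 37° C., ambient atmosphere. Method per CLSI M07-A8; blood supplement and CO2 reserved for fastidious organisms.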

[1] = system: S. epidermidis ATCC 12228; test: MIC, microdilution method (9.1); type: cell-based, Staphylococcus epidermidis; conditions: Staphylococcus epidermidis, ATCC12228, read after 18 h, read-out: MIC
Outline: as §1

[2] = system: S. epidermidis CIP 103627; test: MIC, microdilution method (9.1); type: cell-based, Staphylococcus epidermidis; conditions: Staphylococcus epidermidis, CIP103627, read after 18 h, read-out: MIC
Outline: as §1

S. aureus CIP 65.6 = test: MIC, microdilution method (9.1); type: cell-based, Staphylococcus aureus; conditions: Staphylococcus aureus, CIP65, read after 18 h, read-out: MIC
Outline: as §1

S. aureus SA-1199B = test: MIC, microdilution method (9.1); type: cell-based, Staphylococcus aureus; conditions: Staphylococcus aureus, SA1199B, 18 h
Outline: as §1

[3] = system: S. aureus ATCC 106414 (VISA); test: MIC, microdilution method (9.1); type: cell-based, Staphylococcus aureus; conditions: Staphylococcus aureus, read after 18 h, read-out: MIC
Outline: as §1

S. aureus ATCC 6538 = test: MIC, microdilution method (9.1); type: cell-based, Staphylococcus aureus; conditions: Staphylococcus aureus, ATCC6538, read after 18 h, read-out: MIC
Outline: as §1

S. aureus ATCC 9144 = test: MIC, microdilution method (9.1); type: cell-based, Staphylococcus aureus; conditions: Staphylococcus aureus, ATCC9144, read after 18 h, read-out: MIC
Outline: as §1

S. aureus CIP 103428 = test: MIC, microdilution method (9.1); type: cell-based, Staphylococcus aureus; conditions: Staphylococcus aureus, CIP103428, read after 18 h, read-out: MIC
Outline: as §1

S. aureus ATCC 29213 = test: MIC, microdilution method (9.1); type: cell-based, Staphylococcus aureus; conditions: Staphylococcus aureus, ATCC29213, read after 18 h, read-out: MIC
Outline: as §1

[4] = system: S. aureus ATCC 33592 (MRSA); test: MIC, microdilution method (9.1); type: cell-based, Staphylococcus aureus; conditions: Staphylococcus aureus, read after 18 h, read-out: MIC
Outline: as §1

S. aureus ATCC 25923 = test: MIC, microdilution method (9.1); type: cell-based, Staphylococcus aureus; conditions: Staphylococcus aureus, ATCC25923, read after 18 h, read-out: MIC
Outline: as §1

[5] = system: S. aureus CIP 65.25 (MRSA); test: MIC, microdilution method (9.1); type: cell-based, Staphylococcus aureus; conditions: Staphylococcus aureus, read after 18 h, read-out: MIC
Outline: as §1

[6] = system: Listeria innocua CIP 80.11; test: MIC, microdilution method (9.1); type: cell-based; conditions: CIP80, 18 h, read-out: MIC
Outline: as §1

[7] = system: Haemophilus influenzae ATCC 49766; test: MIC, microdilution method (9.1); type: cell-based; conditions: ATCC49766; Haemophilus influenzae ATCC 49766; 10% sheep blood, 5% CO2; 18 h; read-out: MIC
Outline: (§2)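 Standard CLSI broth microdilution. Test range 0.50-128 mg/L (final), doubling steps.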

[8] = system: Pseudomonas aeruginosa CIP 5933; test: MIC, microdilution method (9.1); type: cell-based; conditions: CIP5933, 18 h, read-out: MIC
Outline: as §1

[9] = system: Enterobacter cloacae ATCC13047; test: MIC, microdilution method (9.1); type: cell-based; conditions: 18 h
Outline: as §1

S. pneumoniae ATCC 49619 = test: MIC, microdilution method (9.1); type: cell-based; conditions: Streptococcus pneumoniae, ATCC49619, 10% sheep blood, 5% CO2, 18 h
Outline: as §2

[10] = system: Acinetobacter baumanii ATCC 19606; test: MIC, microdilution method (9.1); type: cell-based; conditions: Acinetobacter baumannii, ATCC19606, 18 h, read-out: MIC
Outline: as §1

[11] = system: Klebsiella pneumoniae API ATCC 35657; test: MIC, microdilution method (9.1); type: cell-based; conditions: ATCC35657, 18 h, read-out: MIC
Outline: as §1

[12] = system: Escherichia coli ATCC 25922; test: MIC, microdilution method (9.1); type: cell-based; conditions: ATCC25922, 18 h
Outline: as §1

[13] = system: Serratia marcescens CIP 103551; test: MIC, microdilution method (9.1); type: cell-based; conditions: CIP103551, 18 h
Outline: as §1

[14] = system: Bacillus subtilis CIP 5262; test: MIC, microdilution method (9.1); type: cell-based; conditions: CIP5262, 18 h, read-out: MIC
Outline: as §1

[15] = system: HCT116 (human colon tumor); test: In vitro cytotoxicity; type: cell-based; conditions: HCT-116, HCT116, from 100 μM to 0.005 μM in DMSO, duplicate
[16] = system: S. agalactiae (group B) ATCC 12400; test: MIC, microdilution method (9.1); type: cell-based, Streptococcus agalactiae; conditions: Streptococcus agalactiae, ATCC12400, 18 h, read-out: MIC
Outline: as §1

S. mitis CIP 103335 = test: MIC, microdilution method (9.1); type: cell-based, Streptococcus mitis; conditions: Streptococcus mitis, CIP103335, 18 h, read-out: MIC
Outline: as §1

[17] = system: 29 bacterial strains belonging to 17 different species; test: MIC determination, overall statements on the bacterial panel; type: cell-based; conditions: summary of MIC results
Description: The microdilution method recommended by the Clinical and Laboratory Standard Institute [M07-A8, Vol. 29, No. 2] was used. The activity of indolic compounds was tested against 29 bacterial strains belonging to 17 different species and 12 different genera (Staphylococcus, Streptococcus, Enterococcus, Listeria, Bacillus, Haemophilus, Escherichia, Klebsiella, Enterobacter, Serratia, Pseudomonas, and Acinetobacter). Bacterial inocula were prepared in Mueller Hinton broth (MH2, bioMérieux, Marcy L'Etoile, France), supplemented with 10% sheep blood for fastidious species (i.e., Streptococcus pneumoniae and Haemophilus influenzae). They were dispensed in 96 well microtiter plates (5×10^5 CFU/ml of final inoculum). Indolic compounds were added to the wells as to obtain two-fold serial concentrations (0.50-128 mg/L of final concentrations). Plates were incubated at 37° C. in ambient air, or at 37° C. in 5% CO2 enriched atmosphere for fastidious species. […] Drug-free cultures served as growth controls. Cultures receiving gentamicin, ciprofloxacin or cefotaxime served as positive controls.

E. faecium CIP 54.32 = test: MIC, microdilution method (9.1); type: cell-based, Enterococcus faecium; conditions: Enterococcus faecium, CIP54, 18 h, read-out: MIC
Outline: as §1

[18] = system: S. pyogenes (group A) CIP 104226; test: MIC, microdilution method (9.1); type: cell-based, Streptococcus pyogenes; conditions: Streptococcus pyogenes, CIP104226, 18 h, read-out: MIC
Outline: as §1

S. pneumoniae ATCC 6303 = test: MIC, microdilution method (9.1); type: cell-based, Streptococcus pneumoniae; conditions: Streptococcus pneumoniae, ATCC6303, 10% sheep blood, 5% CO2, 18 h, read-out: MIC
Outline: as §2

E. faecalis ATCC 29212 = test: MIC, microdilution method (9.1); type: cell-based, Enterococcus faecalis; conditions: Enterococcus faecalis, ATCC29212, 18 h, read-out: MIC
Outline: as §1

CC(C)(C)OC(=O)NCC(NC(=O)c1ccccc1)c1c[nH]c2ccc(Br)cc12 (centres unmarked) [Compound 8, t-Butyl (2-benzamido-2-(5-bromo-1H-indol-3-yl)ethyl) carbamate]
MIC (S. epidermidis CIP 81.55): > 128 µg/mL
MIC [1]: > 128 µg/mL
MIC [2]: > 128 µg/mL
MIC (S. aureus CIP 65.6): > 128 µg/mL
MIC (S. aureus SA-1199B): > 128 µg/mL
MIC [3]: > 128 µg/mL
MIC (S. aureus ATCC 6538): > 128 µg/mL
MIC (S. aureus ATCC 9144): > 128 µg/mL
MIC (S. aureus CIP 103428): > 128 µg/mL
MIC (S. aureus ATCC 29213): > 128 µg/mL
MIC [4]: > 128 µg/mL
MIC (S. aureus ATCC 25923): > 128 µg/mL
MIC [5]: > 128 µg/mL
MIC [6]: > 128 µg/mL
MIC [7]: > 128 µg/mL
MIC [8]: > 128 µg/mL
MIC [9]: > 128 µg/mL
MIC (S. pneumoniae ATCC 49619): > 128 µg/mL
MIC [10]: > 128 µg/mL
MIC [11]: > 128 µg/mL
MIC [12]: > 128 µg/mL
MIC [13]: > 128 µg/mL
MIC [14]: > 128 µg/mL
IC50 ([15]; first value): 6.14 µM
IC50 ([15]; second value): 7.33 µM
MIC [16]: > 128 µg/mL
MIC (S. mitis CIP 103335): > 128 µg/mL
intrinsic antibacterial activity (in words) [17]: lack of intrinsic antibacterial activity
MIC (E. faecium CIP 54.32): > 128 µg/mL
MIC [18]: > 128 µg/mL
MIC (S. pneumoniae ATCC 6303): > 128 µg/mL
MIC (E. faecalis ATCC 29212): > 128 µg/mL
